Experimental data: patent US20220265692A1, “ORALLY-ADMINISTERED PHARMACEUTICAL COMPOSITION FOR ERADICATING ANTIBIOTIC-RESISTANT HELICOBACTER PYLORI, COMPRISING COMPLEX OF NON-ABSORBABLE ANTIBIOTIC AND CLAY MINERAL” (priority 2019, published 2022)
Where two headings read alike, the source gives them in different places.

Legend:
Helicobacter pylori = settings: general statement; cited from earlier work
[1] = tested on: Helicobacter pylori clinical strains; assay: Evaluation of antibiotic resistant rate (in vitro MIC, 187 clinical strains); format: cell-based
Method: Complexes of antibiotics (amoxicillin, clarithromycin, metronidazole, levofloxacin, and tetracyclin) and smectite which have been actually used for Helicobacter eradication treatment in current clinical trials were prepared and in vitro MIC for non-absorbable antibiotic candidate groups gentamicin, netilmicin, tobramycin, amikacin) to be used as a novel therapeutic agent was measured, and MIC50 and MIC90 were confirmed. To this end, 187 cultured positive clinical strains obtained from 1,265 patient samples were used.

[2] = tested on: clarithromycin-resistant Helicobacter pylori; assay: Eradication activity in vitro on clarithromycin-resistant strain (disk); format: cell-based; settings: strain with MIC of CLR 48 mg/L, twice repeated tests
Description: Clarithromycin-resistant Helicobacter pylori was applied (red) in a medium and then a sample was made in a disk form and placed on the medium to measure the eradication effect. At this time, it was meant that if red disappeared around the disk, there was the eradication effect.

| Compound | resistant rate ([1]; based on MIC 1 μg/ml) [%] | further results |
| --- | --- | --- |
| CC1(C)S[C@@H]2[C@H](NC(=O)[C@H](N)c3ccc(O)cc3)C(=O)N2[C@H]1C(=O)O [Amoxicilin, amoxicillin] |  | resistance (Helicobacter pylori): less than 10% |
| NCC[C@H](O)C(=O)N[C@@H]1C[C@H](N)[C@@H](O[C@H]2O[C@H](CN)[C@@H](O)[C@H](O)[C@H]2O)[C@H](O)[C@H]1O[C@H]1O[C@H](CO)[C@@H](O)[C@H](N)[C@H]1O [amikacin] | 61.3 |  |
| CC[C@H]1OC(=O)[C@H](C)[C@@H](O[C@H]2C[C@@](C)(OC)[C@@H](O)[C@H](C)O2)[C@H](C)[C@@H](O[C@@H]2O[C@H](C)C[C@H](N(C)C)[C@H]2O)[C@](C)(OC)C[C@@H](C)C(=O)[C@H](C)[C@@H](O)[C@]1(C)O [clarithromycin] |  | resistant rate [1]: 29.8%; eradication effect on clarithromycin-resistant H. pylori (clear zone around disk) [2]: the clear zone was not shown |
| C[C@H]1COc2c(N3CCN(C)CC3)c(F)cc3c(=O)c(C(=O)O)cn1c23 [levofloxacin] |  | resistant rate [1]: 37.2% |
| CCN[C@@H]1C[C@H](N)[C@@H](O[C@H]2OC(CN)=CC[C@H]2N)[C@H](O)[C@H]1O[C@H]1OC[C@](C)(O)[C@H](NC)[C@H]1O [netilmicin] | 1.43 |  |
| NC[C@H]1O[C@H](O[C@H]2[C@H](O)[C@@H](O[C@H]3O[C@H](CO)[C@@H](O)[C@H](N)[C@H]3O)[C@H](N)C[C@@H]2N)[C@H](N)C[C@@H]1O [tobramycin] | 36.3 |  |
| gentamicin | 2.78 |  |
